The values that follow come from patent US6383762B1, “Methods of obtaining compounds that interact with a human serotonin (5-HT2) receptor” (Synaptic Pharmaceutical Corporation, priority 1989, dated 2002).

The target of experiment [1] is T1, cloned human 5-HT2 receptor (Homo sapiens, UniProt P28223).
T1 construct: Clone 6B contained the entire coding region for a 5-HT2 receptor; expressed in transfected cells
Nature of the experiment: Competition for 3H-Ketanserin binding, cloned human 5-HT2 receptor in stably transfected Ltk- cell membranes. The note with it: cloned human 5-HT2 receptor expressed in Ltk- cells; 3H-Ketanserin radioligand. Here is the method: (§1) The total reaction volume was 0.25 ml.
(§2) Subsequent to analysis in transiently transfected cells, the 5-HT2 clone was expressed as a stable transfectant in mouse Ltk^− cells. Further characterization was done on these cells as described above.
Data were analyzed by computer-assisted analysis (Accufit Competition; Lundon Software; Chagrin Falls, Ohio).
(§3) Full saturation analysis was performed on stable cell lines expressing the gene. […] The binding constants were evaluated by computer-assisted nonlinear regression using Accufit (Lundon Software, Chagrin Falls, Ohio). […] Further characterization was accomplished by performing competition experiments for a series of drugs. Analysis of the competition data was accomplished using the computer-assisted nonlinear regression program Accucomp.

In experiment [2] the target is T2, 5-HT2 receptor in rat cortical membranes (Rattus norvegicus, UniProt P14842).
T2 construct: rather than in rat cortical membranes; host or cells: rat cortical membranes
T2 sequence (P14842 whole entry): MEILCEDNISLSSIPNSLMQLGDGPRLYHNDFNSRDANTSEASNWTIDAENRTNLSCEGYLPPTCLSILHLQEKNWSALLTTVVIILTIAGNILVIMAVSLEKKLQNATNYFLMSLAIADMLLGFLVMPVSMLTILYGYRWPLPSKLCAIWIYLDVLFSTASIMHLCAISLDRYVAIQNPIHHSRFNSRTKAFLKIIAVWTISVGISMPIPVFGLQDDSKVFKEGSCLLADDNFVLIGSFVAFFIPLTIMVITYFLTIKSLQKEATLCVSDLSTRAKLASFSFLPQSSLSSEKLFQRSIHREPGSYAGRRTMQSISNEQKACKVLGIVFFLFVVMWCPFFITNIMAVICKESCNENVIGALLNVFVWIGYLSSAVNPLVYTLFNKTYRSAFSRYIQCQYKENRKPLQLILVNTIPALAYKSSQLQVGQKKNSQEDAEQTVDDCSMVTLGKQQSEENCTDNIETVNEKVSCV
The following applies: rat cortex; Hoyer et al. 1986; cited from earlier work.

Experiment [3] addresses T3, 5-HT2 receptor in human cortical membranes (Homo sapiens, UniProt P28223).
T3 construct: the 5-HT2 receptor in human cortical membranes; host or cells: human cortical membranes
The note with it: human cortex; footnote 1 Lyon et al. 1987, footnote 2 Hoyer et al. 1986; cited from earlier work.

Experiment [4] concerns the target T4, human 5-HT2 receptor (Homo sapiens, UniProt P28223). Nature of the experiment: Saturation analysis of 3H-Ketanserin binding to stably transfected Ltk- cells. More on the design: Clone 6B contained the entire coding region for a 5-HT2 receptor; expressed in transfected cells. Here is the method:
as §1, §2, §3

In experiment [5] the target is T4, human 5-HT2 receptor. The experiment in a line: Radioligand binding to transiently transfected Cos-7 cell membranes. The note with it: transiently transfected Cos-7 cells.

T4 sequence (P28223 whole entry): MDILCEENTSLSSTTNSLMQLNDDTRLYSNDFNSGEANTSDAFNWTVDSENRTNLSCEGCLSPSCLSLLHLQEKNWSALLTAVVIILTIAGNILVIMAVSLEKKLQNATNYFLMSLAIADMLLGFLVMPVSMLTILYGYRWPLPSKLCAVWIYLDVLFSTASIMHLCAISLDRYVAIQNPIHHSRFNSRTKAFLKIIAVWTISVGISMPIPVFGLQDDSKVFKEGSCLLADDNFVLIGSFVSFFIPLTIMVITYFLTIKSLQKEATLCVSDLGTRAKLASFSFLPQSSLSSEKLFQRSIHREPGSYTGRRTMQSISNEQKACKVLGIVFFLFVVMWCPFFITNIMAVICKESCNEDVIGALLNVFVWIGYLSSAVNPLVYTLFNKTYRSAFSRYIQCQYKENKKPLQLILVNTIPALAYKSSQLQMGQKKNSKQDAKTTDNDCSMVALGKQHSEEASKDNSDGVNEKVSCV
T3 sequence (P28223 whole entry): as above
T1 sequence (P28223 whole entry): as above

The Ki is a dissociation constant, usually derived from enzyme kinetics or from competition with a known ligand. With `NCCc1c[nH]c2ccc(C(N)=O)cc12` [5-CT], the values for the inhibitory constant (Ki) in experiment [1], in experiment [2] and in experiment [3] were 3030 nM, 20000 nM and 813 nM, respectively.
As for `CN1C[C@@H](NS(=O)(=O)N(C)C)C[C@@H]2c3cccc4c3c(cn4C)C[C@H]21` [MESULERGINE], the Ki in experiment [1] was 146 ± 5 nM; in experiment [3] it was 158 nM.
Regarding `[3H]C([3H])(N1CCC(C(=O)c2ccc(F)cc2)CC1)C([3H])([3H])n1c(=O)[nH]c2ccccc2c1=O` [^3H-Ketanserin], the Bmax was 0.602 pmole/mg protein at human 5-HT2 receptor [4] (FIG. 4 experiment, stably transfected Ltk- cells) and 0.602±0.07 pm/mg protein at human 5-HT2 receptor [4] (Ltk- cells transfected with pMO5-6B). Besides, the “binding affinity in words” value on human 5-HT2 receptor [5] was “high affinity”. For the same molecule, the estimated site density on human 5-HT2 receptor [5] was 0.95-1.6 pm/mg protein.
